# Experimental data from article PMC8822125, “RW-BP100-4D, a Promising Antimicrobial Candidate With Broad-Spectrum Bactericidal Activity” (Frontiers in Microbiology, 2022).
# Several values for one entry are separate records, joined by “and”; a condition that tells them apart may be missing. Equal entries are not always repeated. Where a SMILES comes first, the peptide text is derived from it.
# Experiments:
# [1] = tested on: S. aureus ATCC29213; conditions: 1 h, mean of three
# [2] = biological target: papain (Carica papaya, UniProt P00784); conditions: 100 μg/mL peptide, papain 1 mg/mL, 37°C, 1 h; decrease of HPLC peak area (C8, UV 220 nm)
# Chain of papain (P00784 134-345): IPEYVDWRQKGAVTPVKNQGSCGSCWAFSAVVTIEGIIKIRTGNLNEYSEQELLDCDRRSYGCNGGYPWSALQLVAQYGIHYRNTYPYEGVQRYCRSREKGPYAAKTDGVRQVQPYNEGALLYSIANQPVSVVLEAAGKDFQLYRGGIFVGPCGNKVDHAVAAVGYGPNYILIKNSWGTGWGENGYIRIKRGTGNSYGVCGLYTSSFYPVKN
# [3] = tested on: Escherichia coli O157:H7; assay: MIC/MBC, broth microdilution; type: cell-based; conditions: mean of three repeated experiments
# [4] = tested on: Staphylococcus aureus ATCC33591; conditions: Staphylococcus aureus ATCC33591 (mecA); mean of three repeated experiments
# [5] = tested on: Klebsiella pneumoniae XG-Kpn03; conditions: Klebsiella pneumoniae XG-Kpn03 (blaNDM-5); mean of three repeated experiments
# Procedure: (§1) To compare the antibacterial activity of RW-BP100 and its serial derivatives, the MIC against S. aureus ATCC29213 and E. coli ATCC25922 were determined using broth microdilution method according to the guidelines of Clinical and Laboratory Standards Institute (CLSI) M100-S25 ([CLSI, 2015]). Briefly, peptides were dissolved in sterilized water and twofold diluted in Mueller-Hinton (MH) broth (Beijing Land Bridge Technology) at the concentration ranges of 0.098–100 μg/mL. Then the peptides were mixed with an equal volume (100 μL) of bacterial suspensions of 10^6 CFU/mL in a sterilized 96-well microtiter plate. […] To further evaluate the antimicrobial spectrum of RW-BP100-4D, MICs were determined against a more variety of Gram-positive and Gram-negative bacterial species, and the fungal strains (according to CLSI M38 guideline). […] MIC and MBC testing were performed with three independent repeats.
# [6] = tested on: Streptococcus agalactiae ATCC13813; conditions: mean of three repeated experiments
# Procedure: as §1
# [7] = tested on: Salmonella enterica ATCC13076; conditions: mean of three repeated experiments
# Procedure: as §1
# [8] = tested on: Pseudomonas aeruginosa 42; conditions: mean of three repeated experiments
# Procedure: as §1
# [9] = tested on: Acinetobacter baumannii 34AB; conditions: Acinetobacter baumannii 34AB (tet(X3)); mean of three repeated experiments
# Procedure: as §1
# [10] = tested on: Campylobacter jejuni ATCC33291; conditions: mean of three repeated experiments
# Procedure: as §1
# [11] = tested on: Shewanella putrefaction ATCC49138; conditions: mean of three repeated experiments
# Procedure: as §1
# [12] = tested on: Enterococcus faecalis JH2-2; conditions: mean of three repeated experiments
# Procedure: as §1
# [13] = tested on: C. albicans ATCC10231; conditions: 1 h, mean of three
# Procedure: To evaluate the thermal and pH stability of RW-BP100-4D, 100 μL of the peptide (100 μg/mL, in PBS buffer) was incubated under different temperatures (40, 50, 60, 70, 80, 90, and 100°C, pH 7) or different pHs (2, 3, 4, 5, 6, 7, 8 and 9, 37°C) for 1 h ([Song et al., 2020]). After incubation, the pH of the peptide solutions was adjusted to 7.0 using NaOH or HCl. For protease and serum stability test, 100 μL of RW-BP100-4D (100 μg/mL) was incubated with proteinase K (1 mg/mL), trypsin (1 mg/mL), papain (1 mg/mL), or sterile calf serum at 37°C for 1 h, respectively ([Song et al., 2020]). After the treatments, the proteases and calf serum were inactivated by heating at 80°C for 30 min. The remnant activity of the treated RW-BP100-4D was evaluated by determining the MICs against E. coli ATCC25922, S. aureus ATCC29213, and C. albicans ATCC10231 using broth microdilution method. RW-BP100-4D without any treatment was used as the control and each test was conducted with three independent repeats. Moreover, degradation rate (%) was estimated as the percentage of degraded peptide calculated from the decrease of the high-performance liquid chromatography (HPLC) peak area of the native peptide. HPLC analysis was performed using the Agilent™ 1100 Series equipped with an Agilent analysis column (ZORBAX RX-C8, 2.1 mm × 150 mm, 5 μm) and an UV detector at 220 nm. Mobile phase was composed of A (H2O) and B (acetonitrile), which contained 0.065% trifluoroacetic (v/v) and 0.05% trifluoroacetic (v/v), respectively.
# [14] = tested on: E. coli ATCC25922, S. aureus ATCC29213, and C. albicans ATCC10231; assay: Stress stability, fold change of MIC against the three reference strains; type: cell-based; conditions: proteinase K 1 mg/mL, 37°C, 1 h
# [15] = tested on: Escherichia coli ATCC25922
# [16] = tested on: sheep red blood cells; conditions: sheep red blood cells in PBS, 37°C, 1 h, OD576, relative to melittin, mean ± SD, three repeats;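 further: hemolysis expressed in % from supernatant absorbance, with PBS-treated cells as 0% baseline and melittin as 100%, peptide mixed 1:1 with an 8% v/v erythrocyte suspension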
# [17] = tested on: various microorganisms; assay: MIC/MBC, summary statements over several strains; type: cell-based
# [18] = tested on: E. coli ATCC25922; conditions: 1 h, mean of three
# [19] = 100 μg/mL peptide in PBS, pH 7, 40-80 ℃, then broth microdilution
# [20] = 100 μg/mL peptide in PBS, pH 7, 90 ℃
# [21] = 100 μg/mL peptide in PBS, pH 7, 100 ℃
# [22] = 100 μg/mL peptide with papain 1 mg/mL, 37°C, protease inactivated 80°C 30 min
# [23] = 100 μg/mL peptide with sterile calf serum, 37°C, serum inactivated 80°C 30 min
# [24] = 100 μg/mL peptide with trypsin 1 mg/mL, 37°C, protease inactivated 80°C 30 min
# [25] = 100 μg/mL peptide, pH 2-7, 37°C, then adjusted to pH 7.0
# [26] = 100 μg/mL peptide, pH 8-9, 37°C, then adjusted to pH 7.0
smiles,measurement,setting,value
CC[C@H](C)[C@H](NC(=O)[C@H](CCCNC(=N)N)NC(=O)[C@H](CCCNC(=N)N)NC(=O)[C@@H](Cc1ccccc1)NC(=O)[C@H](CC(C)C)NC(=O)[C@H](CCCNC(=N)N)NC(=O)[C@@H](N)CCCNC(=N)N)C(=O)N[C@@H](CC(C)C)C(=O)N[C@@H](CCCNC(=N)N)C(=O)N[C@@H](Cc1c[nH]c2ccccc12)C(=O)N[C@@H](CC(C)C)C(N)=O [RW-BP100-4D] (HELM PEPTIDE1{R.R.L.[dF].R.R.I.L.R.W.L.[am]}$$$$V2.0),MIC of RW-BP100-4D against S. aureus ATCC29213 after 40-80 ℃,[1]; [19],3 µg/mL
same,MIC of RW-BP100-4D against S. aureus ATCC29213 after 90 ℃,[1]; [20],6 µg/mL
same,MIC of RW-BP100-4D against S. aureus ATCC29213 after 100 ℃,[1]; [21],25 µg/mL
same,MIC of RW-BP100-4D against S. aureus ATCC29213 after papain,[1]; [22],>50 µg/mL
same,MIC of RW-BP100-4D against S. aureus ATCC29213 after calf serum,[1]; [23],>50 µg/mL
same,MIC of RW-BP100-4D against S. aureus ATCC29213 after trypsin,[1]; [24],>50 µg/mL
same,MIC of RW-BP100-4D against S. aureus ATCC29213 after pH 2-7,[1]; [25],3 µg/mL
same,MIC of RW-BP100-4D against S. aureus ATCC29213 after pH 8-9,[1]; [26],12 µg/mL
same,"Degradation, papain",[2],>90%
same,MBC of peptides,[3],6 µg/mL
same,MIC of peptides,[3],3 µg/mL
same,MBC of peptides,[4],6 µg/mL
same,MIC of peptides,[4],6 µg/mL and 3 µg/mL
same,MBC of peptides,[5],50 µg/mL
same,MIC of peptides,[5],25 µg/mL
same,MBC of peptides,[6],6 µg/mL
same,MIC of peptides,[6],3 µg/mL
same,MBC of peptides,[7],6 µg/mL
same,MIC of peptides,[7],3 µg/mL
same,MBC of peptides,[8],50 µg/mL
same,MIC of peptides,[8],12 µg/mL
same,MBC of peptides,[9],12 µg/mL
same,MIC of peptides,[9],6 µg/mL
same,MBC of peptides,[10],12 µg/mL
same,MIC of peptides,[10],6 µg/mL
same,MBC of peptides,[11],12 µg/mL
same,MIC of peptides,[11],6 µg/mL
same,MBC of peptides,[12],50 µg/mL
same,MIC of peptides,[12],12 µg/mL
same,MIC of RW-BP100-4D against C. albicans ATCC10231 after 40-80 ℃,[13]; [19],12 µg/mL
same,MIC of RW-BP100-4D against C. albicans ATCC10231 after 90 ℃,[13]; [20],25 µg/mL
same,MIC of RW-BP100-4D against C. albicans ATCC10231 after 100 ℃,[13]; [21],50 µg/mL
same,MIC of RW-BP100-4D against C. albicans ATCC10231 after papain,[13]; [22],>50 µg/mL
same,MIC of RW-BP100-4D against C. albicans ATCC10231 after calf serum,[13]; [23],>50 µg/mL
same,MIC of RW-BP100-4D against C. albicans ATCC10231 after trypsin,[13]; [24],>50 µg/mL
same,MIC of RW-BP100-4D against C. albicans ATCC10231 after pH 2-7,[13]; [25],12 µg/mL
same,MIC of RW-BP100-4D against C. albicans ATCC10231 after pH 8-9,[13]; [26],25 µg/mL
same,"MICs after treatment with proteinase K, fold of the original level",[14],4–8 fold
same,MBC of peptides,"[15]; Escherichia coli ACTT25922, mean of three repeated experiments",12 µg/mL
same,MIC Escherichia coli ATCC25922,"[15]; Table 1, broth microdilution CLSI M100-S25, MH broth, 37°C, 18 h, three independent repeats",6 µg/mL
same,MIC of peptides,"[15]; Table 2, Escherichia coli ACTT25922, mean of three repeated experiments",6 µg/mL
same,"Hemolytic rate, 50 μg/mL",[16]; 50 μg/mL peptide,0.11 ± 0.19%
same,"Hemolytic rate, 100 μg/mL",[16]; 100 μg/mL peptide,3.69 ± 0.01%
same,"Hemolytic rate, 150 μg/mL",[16]; 150 μg/mL peptide,18.75 ± 0.42%
same,"Hemolytic rate, 300 μg/mL",[16]; 300 μg/mL peptide,48.55 ± 2.53%
same,MICs against the selected Gram-negative bacterial isolates,"[17]; E. coli, Salmonella enterica, K. pneumoniae, C. jejuni, A. baumannii, Pseudomonas spp., S. putrefaction, range over strains",3 to 25 µg/mL
same,MIC against S. aureus ATCC29213 and E. coli ATCC25922 (both strains together),[17]; summary of Table 1,3 to 12 µg/mL
same,MIC of RW-BP100-4D against E. coli ATCC25922 after 40-80 ℃,[18]; [19],6 µg/mL
same,MIC of RW-BP100-4D against E. coli ATCC25922 after 90 ℃,[18]; [20],12 µg/mL
same,MIC of RW-BP100-4D against E. coli ATCC25922 after 100 ℃,[18]; [21],25 µg/mL
same,MIC of RW-BP100-4D against E. coli ATCC25922 after papain,[18]; [22],>50 µg/mL
same,MIC of RW-BP100-4D against E. coli ATCC25922 after calf serum,[18]; [23],>50 µg/mL
same,MIC of RW-BP100-4D against E. coli ATCC25922 after trypsin,[18]; [24],>50 µg/mL
same,MIC of RW-BP100-4D against E. coli ATCC25922 after pH 2-7,[18]; [25],6 µg/mL
same,MIC of RW-BP100-4D against E. coli ATCC25922 after pH 8-9,[18]; [26],12 µg/mL
